Values of other authors in patent publication US20030191121A1, “Piperazine carboxamide intermediates of HIV protease inhibitors and processes for their preparation” (priority 2001, published 2003).

Test system: HIV
Details: HIV-infected patients, in combination with nucleoside reverse transcriptase inhibitors

CC(C)(C)NC(=O)[C@@H]1CN(Cc2cccnc2)CCN1C[C@@H](O)C[C@@H](Cc1ccccc1)C(=O)N[C@H]1c2ccccc2C[C@H]1O [Indinavir, indinavir]
reducing HIV viral loads and increasing CD4 cell counts: highly effective
